Series [1] has as its system Influenza A virus. Kind of series: Antiviral activity against Influenza A virus H5N2 infected in specific pathogen free embryonated egg assessed as survival rate at 10 mM preincubated for 1 hr prior to inoculation measured after 48 hrs (reference value: 0%). It is filed as functional.
The test system of series [2] is Influenza A virus. As to the kind of experiment: Antiviral activity against Influenza A virus H5N2 infected in specific pathogen free embryonated egg assessed as survival rate at 2.5 mM preincubated for 1 hr prior to inoculation measured after 48 hrs (reference value: 0%). It is filed as functional.
For series [3], the system named is Influenza A virus. As to the kind of experiment: Antiviral activity against Influenza A virus H5N2 infected in specific pathogen free embryonated egg assessed as survival rate at 0.625 mM preincubated for 1 hr prior to inoculation measured after 48 hrs (reference value: 0%). The series is classed as functional.
The test system of series [4] is Influenza A virus. Kind of series: Antiviral activity against Influenza A virus H5N2 infected in specific pathogen free embryonated egg assessed as survival rate at 0.156 mM preincubated for 1 hr prior to inoculation measured after 48 hrs (reference value: 0%). It is filed as functional.
For series [5], the system named is Influenza A virus. As to the kind of experiment: Antiviral activity against Influenza A virus H5N2 infected in specific pathogen free embryonated egg assessed as survival rate at 0.039 mM preincubated for 1 hr prior to inoculation measured after 48 hrs (reference value: 0%). It is filed as functional.
Series [6] has as its system Influenza A virus. Kind of series: Antiviral activity against Influenza A virus H5N2 infected in specific pathogen free embryonated egg assessed as survival rate at 10 mM preincubated for 1 hr prior to inoculation measured after 72 hrs (reference value: 0%). The series is classed as functional.
For series [7], the system named is Influenza A virus. Kind of series: Antiviral activity against Influenza A virus H5N2 infected in specific pathogen free embryonated egg assessed as survival rate at 2.5 mM preincubated for 1 hr prior to inoculation measured after 72 hrs (reference value: 0%). It is filed as functional.
For series [8], the system named is Influenza A virus. Kind of series: Antiviral activity against Influenza A virus H5N2 infected in specific pathogen free embryonated egg assessed as survival rate at 0.625 mM preincubated for 1 hr prior to inoculation measured after 72 hrs (reference value: 0%). It is filed as functional.
Series [9] concerns Influenza A virus. As to the kind of experiment: Antiviral activity against Influenza A virus H5N2 infected in specific pathogen free embryonated egg assessed as survival rate at 0.156 mM preincubated for 1 hr prior to inoculation measured after 72 hrs (reference value: 0%). It is filed as functional.
For series [10], the system named is Influenza A virus. As to the kind of experiment: Antiviral activity against Influenza A virus H5N2 infected in specific pathogen free embryonated egg assessed as survival rate at 0.039 mM preincubated for 1 hr prior to inoculation measured after 72 hrs (reference value: 0%). It is filed as functional.
Series [11] in a line: MRT (0 to infinity) in Sprague-Dawley rat at 2 mg/kg, iv by LC-MS analysis. The series is classed as ADME, organism-based. The note with it: in vivo.
The subject of series [12] is Rattus norvegicus. Kind of series: Half life in Sprague-Dawley rat at 2 mg/kg, iv by LC-MS analysis. Conditions: in vivo. It is filed as ADME, organism-based.
In series [13] the test system is Rattus norvegicus. Kind of series: Tmax in Sprague-Dawley rat at 2 mg/kg, iv by LC-MS analysis. The series is classed as ADME, organism-based. Conditions: in vivo.
The test system of series [14] is Rattus norvegicus. As to the kind of experiment: Clearance in Sprague-Dawley rat at 2 mg/kg, iv by LC-MS analysis. The series is classed as ADME, organism-based. The note with it: in vivo.
Series [15] deals with Rattus norvegicus. Kind of series: Volume of distribution in Sprague-Dawley rat at 2 mg/kg, iv by LC-MS analysis. Conditions: in vivo. The series is classed as ADME, organism-based.
For series [16], the system named is Rattus norvegicus. As to the kind of experiment: Bioavailability in Sprague-Dawley rat at 2 mg/kg, iv by LC-MS analysis. It is filed as ADME, organism-based. Conditions: in vivo.
Series [17] can be described thus: MRT (0 to infinity) in Sprague-Dawley rat at 20 mg/kg, po by LC-MS analysis. The series is classed as ADME, organism-based. Conditions: in vivo.
In series [18] the test system is Rattus norvegicus. As to the kind of experiment: Half life in Sprague-Dawley rat at 20 mg/kg, po by LC-MS analysis. The series is classed as ADME, organism-based. Conditions: in vivo.
The subject of series [19] is Rattus norvegicus. Kind of series: Tmax in Sprague-Dawley rat at 20 mg/kg, po by LC-MS analysis. The note with it: in vivo. The series is classed as ADME, organism-based.
Series [20] relates to Rattus norvegicus. Kind of series: Cmax in Sprague-Dawley rat at 20 mg/kg, po by LC-MS analysis. The series is classed as ADME, organism-based. The note with it: in vivo. Also noted: dose 20 mg/kg, route oral.
The nature of series [21]: Oral bioavailability in Sprague-Dawley rat at 20 mg/kg by LC-MS analysis. Conditions: in vivo. It is filed as ADME, organism-based.
The subject of series [22] is Mus musculus. Kind of series: Acute toxicity in Kunming mouse at 2000 mg/kg, ig after 1 week. Conditions: in vivo, po, 168 h. It is filed as organism-based.
For series [23], the system named is Mus musculus. As to the kind of experiment: Acute toxicity in Kunming mouse assessed as gross lesions at 2000 mg/kg, ig after 1 week. Conditions: in vivo, po, 168 h. The series is classed as organism-based.
A further series relates to Influenza B virus. The note with it: mdck.
The species named for series [24] is Rattus norvegicus. The note with it: in vivo, iv, 2 mg/kg.
The species named for series [25] is Rattus norvegicus. Conditions: in vivo, po, 20 mg/kg.
Series [26] in a line: in vivo. Conditions: Sprague-Dawley, rat, iv, 2 mg/kg.
Series [27] is described as follows: in vivo. The note with it: Sprague-Dawley, rat, po, 20 mg/kg.
A short description of series [28]: in vitro. Conditions: chicken, chicken embryo fibroblasts.
Series [29] is described as follows: in vitro. Conditions: dog, MDCK cells.
The nature of series [30]: in vitro. Conditions: human, plasma.
A short description of series [31]: in vitro. Conditions: human, plasma. This is another data set of the same source.
The nature of series [32]: in vitro. The note with it: human, plasma. This is another data set of the same source.
The nature of series [33]: in vitro. Conditions: human, plasma. The source holds these as a separate data set.
Series [34] is described as follows: in vitro. Conditions: human, plasma. This is another data set of the same source.
Series [35] in a line: in vitro. Conditions: human, liver microsomes. Background: Liver microsomes are a subcellular fraction often used to study metabolism.
Series [36] can be described thus: in vitro. Conditions: human, liver microsomes. This is another data set of the same source.
Series [37] can be described thus: in vitro. Conditions: human, liver microsomes. This is another data set of the same source.
The nature of series [38]: in vitro. Conditions: human, liver microsomes. This is another data set of the same source.
The subject of series [39] is Influenza A virus. As to the kind of experiment: microbe, parasite or virus in culture. The note with it: A/Puerto Rico/8/1934(H1N1), MDCK, 48 h.
Series [40] concerns Influenza A virus. Kind of series: microbe, parasite or virus in culture. The note with it: MDCK, 48 h.
For series [41] the following is noted: human, microsomes, 20 min.

Some results are limits rather than exact numbers.

Consider `CCC(CC)O[C@@H]1C=C(C(=O)O)C[C@H](NCc2ccc(Sc3ccccc3)cc2)[C@H]1NC(C)=O`, for which the survival at 10000 µM was 100% with Influenza A virus [1] and 60% with Influenza A virus [6]. For the same compound, the survival at 2500 µM in the series with Influenza A virus [2] worked out at 80%; in the series with Influenza A virus [7] it was 20%. The survival at 625 µM in the series on Influenza A virus [3] was 60%; in the series on Influenza A virus [8] it was 0%. The survival at 156 µM in the series on Influenza A virus [4] and in the series on Influenza A virus [9] was 0% throughout. Moreover, the survival at 39 µM with Influenza A virus [5] and in the series with Influenza A virus [10] was 0% throughout. Also, the MRT inf (commonly the average time that molecules of a dose stay in the body) was determined as 2.03 h in series [11] and 4.05 h in [17]. For the same compound, the t1/2 with Rattus norvegicus [12] was 1.76 h; in the series with Rattus norvegicus [18] it was 3.82 h. For the same compound, the Tmax (in general, the time at which the peak concentration occurs) came out at 4.98 min in the series on Rattus norvegicus [13] and 0.83 h in the series with Rattus norvegicus [19]. Moreover, the CL in the series on Rattus norvegicus [14] was 1.41 mL/h/kg. The volume of distribution (Vd) (as a rule, the apparent volume that relates the amount in the body to the concentration in plasma or blood) in the series with Rattus norvegicus [15] was found to be 3.51 L/kg. This compound also had a F with Rattus norvegicus [16] of 100%. For the same compound, in the series on Rattus norvegicus [20], the Cmax (in general, the highest concentration seen after dosing) came out at 407 µg/mL. In series [21], the bioavailability (commonly dose-corrected exposure relative to a reference, in per cent) was 10.3%. In addition, the Activity result in the series with Mus musculus [22] and with Mus musculus [23] was “Non-Toxic” throughout. The EC50 – broadly, the concentration that produces a half-maximal response – was found to be 19 µM with Influenza B virus, 0.06 µM in the series on Influenza A virus [39] and 71 µM with Influenza A virus [40]. The AUC (commonly the area under the concentration-time curve, a measure of exposure) in the series filed under Rattus norvegicus [24] amounted to 1464.41 ng·h/mL; in the series filed under Rattus norvegicus [25], 1558.63 ng·h/mL. In addition, the AUC(0-t) (in general, the area under the concentration-time curve up to a stated or last time point) in “in vivo [26]” came to 1460 ng·h/mL; in the series “in vivo [27]” it was 1500 ng·h/mL. In addition, the values for the CC50 at 48 h in “in vitro [28]” and in “in vitro [29]” were more than 200 µM and more than 250 µM, respectively. The amount remaining at 10 min, 2 µM in the series “in vitro [30]” amounted to 102%. Further, the fraction remaining at 0.5 h, 2 µM in “in vitro [31]” came to 100%. In addition, in “in vitro [32]”, the fraction remaining at 1 h, 2 µM worked out at 100%. Besides, the share remaining at 2 h, 2 µM in the series “in vitro [33]” was 91.6%. Besides, in “in vitro [34]”, the half-life – broadly, the time in which the quantity being followed falls by half – at 2 µM is more than 4.82 h. In “in vitro [35]”, this compound displayed a half-life at 2 uL of more than 2.42 h. In “in vitro [36]”, the microsomal CLint (in general, a measure of how fast metabolising enzymes remove a compound, apart from limits set by blood flow) at 20 min, 2 uL was less than 9.6 µL/min/mg. For the same compound, the amount remaining at 1 h, 2 uL in “in vitro [37]” was determined as 101%; in the series “in vitro [38]” it was 115%.

As for `O=C(O)Cc1ccccc1Nc1c(Cl)cccc1Cl` [DICLOFENAC], the CLH in series [41] came to 5.28 mL/h/kg. In the series “in vitro [35]”, this compound had a half-life at 2 uL of 0.237 h. This compound showed a microsomal CLint at 20 min, 2 uL in “in vitro [36]” of 97.7 µL/min/mg. Further, the share remaining at 1 h, 2 uL in “in vitro [37]” was 5.4%; in the series “in vitro [38]”, 103%.

Source of the values: ChEMBL document CHEMBL4270670 (J Med Chem, 2018).
